From EPA's ToxValDB 9.5
Several values for one entry are separate records, joined by “and”; a condition that tells them apart may be missing. Identical values can stand only once.

Tested on: Mus musculus
Conditions: short-term, oral
[1] = duration: 14 days, gavage, M, BALB/c, spleen: spleen CD3+ cells + spleen: spleen CD3+CD4+ cells + spleen: spleen CD3+CD8+ cells
[2] = duration: 14 days, gavage, M, BALB/c, spleen: spleen: relative weight
[3] = duration: 21 days, gavage, F, B6C3F1, Survival rate (influenza A infection)
[4] = duration: 21 days, gavage, M, BALB/c, spleen: lymphocyte proliferation (ConA)
[5] = duration: 21 days, gavage, M, BALB/c, spleen: spleen CD3+ cells + spleen: spleen CD3+CD4+ cells + spleen: spleen CD3+CD8+ cells + spleen: spleen: relative weight
[6] = duration: 28 days, gavage, F, B6C3F1, IgM antibody-producing cells (SRBC)
[7] = duration: 28 days, gavage, F, B6C3F1, peritoneal cavity: IL-6 levels (+LPS in vivo) + peritoneal cavity: TNF-alpha levels (+LPS in vitro) + spleen: spleen: relative weight
[8] = duration: 28 days, gavage, F, B6C3F1, serum lysozyme activity + spleen: splenic CD4-/CD8+ + spleen: splenic CD4+/CD8-
[9] = duration: 28 days, gavage, F, B6C3F1, spleen (B cells): IL-6 levels (+LPS)
[10] = duration: 28 days, gavage, F, B6C3F1, thymus: thymic CD4+/CD8+

O=S(=O)(O)C(F)(F)C(F)(F)C(F)(F)C(F)(F)C(F)(F)C(F)(F)C(F)(F)C(F)(F)F [Perfluorooctanesulfonic acid]
LOEL (duration: 14 days, gavage, M, BALB/c, spleen: spleen CD3+ cells (cells normalized to control) + spleen: spleen CD3+CD4+ cells (cells normalized to control) + spleen: spleen CD3+…): 2.5 mg/kg-day
LOEL [1]: 5 mg/kg-day
NOEL [1]: 2.5 mg/kg-day
LOEL [2]: 20 mg/kg-day
NOEL [2]: 5 mg/kg-day and 10 mg/kg-day
LOEL (duration: 14 days, gavage, M, BALB/c, thymus: percentage of apoptotic cells in thymus + thymus: thymus: relative weight): 5 mg/kg-day
LOEL (TAD) (duration: 21 days, gavage, F, B6C3F1, IgM antibody titer (TNP)): 7 mg/kg-day
LOEL [3]: 0.025 mg/kg-day
NOEL [3]: 0.005 mg/kg-day
NOEL (duration: 21 days, gavage, F, B6C3F1, body weight + body weight during influenza A infection (day 41, 20 days after infection) + spleen: spleen: relative weight + Survival time (…): 0.025 mg/kg-day
LOEL (duration: 21 days, gavage, F, B6C3F1, body weight during influenza A infection (day 30, 9 days after infection)): 0.005 mg/kg-day
LOEL [4]: 5 mg/kg-day
NOEL [4]: 2.5 mg/kg-day
LOEL (duration: 21 days, gavage, M, BALB/c, spleen: spleen CD3+ cells (cells normalized to control) + spleen: spleen CD3+CD4+ cells (cells normalized to control) + spleen: spleen CD3+…): 2.5 mg/kg-day
NOEL (duration: 21 days, gavage, M, BALB/c, spleen: spleen CD3+ cells + spleen: spleen CD3+CD4+ cells (cells normalized to control) + spleen: spleen CD3+CD8+ cells (cells normalized to…): 10 mg/kg-day
LOEL [5]: 10 mg/kg-day
NOEL [5]: 5 mg/kg-day
LOEL (duration: 28 days, diet, M, B6C3F1, corticosterone): 0.000156%
NOEL (duration: 28 days, diet, M, B6C3F1, haemagglutination + IgG antibody level (SRBC 1:200) + IgM antibody-secreting cells (SRBC) + IgM antibody level (SRBC 1:200) + IgM antibody …): 0.000156%
NOEL (duration: 28 days, diet, M, C57BL/6, liver: IFN-gamma levels + liver: IFN-gamma levels (+Con A in vivo) + liver: IL-4 levels (+Con A in vivo) + liver: TNF-alpha levels + liver: …): 0.0001%
NOEL (duration: 28 days, gavage, F, B6C3F1, IL-4 levels (+PMA) + spleen (CD4+ T cells): IL-5 levels (+PMA) + spleen (CD4+ T cells): IL-6 levels (+anti-CD3) + spleen (CD4+ T cells): IL-…): 0.0331 mg/kg-day
LOEL (TAD) [6]: 0.5 mg/kg-day
NOEL (TAD) [6]: 0.1 mg/kg-day
LOEL (duration: 28 days, gavage, F, B6C3F1, blood serum: IL-6 levels (+LPS in vivo) + blood serum: TNF-alpha levels (+LPS in vivo)): 0.0331 mg/kg-day
NOEL (duration: 28 days, gavage, F, B6C3F1, eosinophils + lymphocytes + monocytes + neutrophils + platelet count + RBC + spleen: cells expressing CD19-/CD21+ + spleen: cells expressing…): 0.166 mg/kg-day
NOEL (duration: 28 days, gavage, F, B6C3F1, peritoneal cavity: IL-6 levels (+LPS in vitro) + peritoneal cavity: IL-6 levels (+LPS in vivo) + peritoneal cavity: TNF-alpha levels (+LPS …): 9.93 mg/kg-day
LOEL [7]: 9.93 mg/kg-day
NOEL [7]: 0.0993 mg/kg-day
LOEL (TAD) [8]: 0.1 mg/kg-day
NOEL (TAD) [8]: 0.05 mg/kg-day
LOEL [9]: 0.0331 mg/kg-day
NOEL [9]: 0.00331 mg/kg-day
LOEL (duration: 28 days, gavage, F, B6C3F1, spleen (B cells): IL-6 levels (+anti-CD40)): 0.00331 mg/kg-day
NOEL (duration: 28 days, gavage, F, B6C3F1, spleen: IL-6 secreting cells (# splenocytes)): 0.0331 mg/kg-day
LOEL (duration: 28 days, gavage, F, B6C3F1, spleen: IL-6 secreting cells (# splenocytes) + spleen: IL-6 secreting cells (% splenocytes)): 0.0993 mg/kg-day
NOEL (TAD) (duration: 28 days, gavage, F, B6C3F1, spleen: lymphocyte proliferation (ConA) + spleen: lymphocyte proliferation (LPS) + spleen: spleen cellularity + spleen: spleen: relative …): 5 mg/kg-day
LOEL (TAD) [10]: 1 mg/kg-day
NOEL (TAD) [10]: 0.5 mg/kg-day
